Experimental findings from article PMC11876601 (Molecular Systems Biology, 2025) are described below.

As a reminder, the EC50 is the concentration that produces a half-maximal response.

Structures are written as SMILES. Read-outs that look alike come from different tables or passages of the source. Some results are limits rather than exact numbers.

Test [1] has as its system HPDE. The test is described as follows: cells. On the set-up: ATPlite luminescence viability of PDAC cell lines, 11-dose single-agent curves, 4-parameter fit. The settings on record: HPDE, 72 h, read-out: EC50 [nM]. In short, it runs like this: (§1)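 Drug-combination screening used cells plated at 1000 to 5000 per well one day before treatment. Final DMSO was 0.2%. Each plate held untreated negative-control wells and 5 µM staurosporine positive-control wells.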

For test [2], the system named is BxPC-3. As to the kind of experiment: cells. On the set-up: ATPlite luminescence viability of PDAC cell lines, 11-dose single-agent curves, 4-parameter fit. The settings on record: Homo sapiens, BXPC-3, 72 h, read-out: EC50 [nM]. In short, it runs like this: as §1
In test [3] the test system is FAMPAC. The test is described as follows: cells. On the set-up: ATPlite luminescence viability of PDAC cell lines, 11-dose single-agent curves, 4-parameter fit. The note with it: 72 h, read-out: EC50 [nM]. The method in brief:
as §1

Test [4] concerns MiaPaCa-2. As to the kind of experiment: cells. On the set-up: ATPlite luminescence viability of PDAC cell lines, 11-dose single-agent curves, 4-parameter fit. The note with it: Homo sapiens, MIA PaCa-2, 72 h, read-out: EC50 [nM]. In short, it runs like this: as §1
Test [5] deals with PANC-1. As to the kind of experiment: cells. On the set-up: ATPlite luminescence viability of PDAC cell lines, 11-dose single-agent curves, 4-parameter fit. The settings on record: Homo sapiens, PANC-1, 72 h, read-out: EC50 [nM]. In short, it runs like this:
as §1

The subject of test [6] is PSN-1. The test is described as follows: cells. The settings on record: Homo sapiens, PSN1, 72 h, read-out: EC50 [nM]. On the set-up: ATPlite luminescence viability of PDAC cell lines, 11-dose single-agent curves, 4-parameter fit. In short, it runs like this:
as §1

Test [7] relates to AsPC-1. As to the kind of experiment: cells. On the set-up: ATPlite luminescence viability of PDAC cell lines, 11-dose single-agent curves, 4-parameter fit. The note with it: Homo sapiens, ASPC1, 72 h, read-out: EC50 [nM]. In short, it runs like this:
as §1

The subject of test [8] is PaTu-8988-T. The test is described as follows: cells. On the set-up: ATPlite luminescence viability of PDAC cell lines, 11-dose single-agent curves, 4-parameter fit. The settings on record: Homo sapiens, PaTu 8988t, 72 h, read-out: EC50 [nM]. The method in brief:
as §1

Test [9] deals with HuP-T4. The test is described as follows: cells. On the set-up: ATPlite luminescence viability of PDAC cell lines, 11-dose single-agent curves, 4-parameter fit. The note with it: Homo sapiens, HuP-T4, 72 h, read-out: EC50 [nM]. The method in brief:
as §1

For test [10], the system named is Dan-G. As to the kind of experiment: cells. On the set-up: ATPlite luminescence viability of PDAC cell lines, 11-dose single-agent curves, 4-parameter fit. The note with it: 72 h, read-out: EC50 [nM]. In short, it runs like this:
as §1

Test [11] has as its system Suit2-07. As to the kind of experiment: cells. On the set-up: ATPlite luminescence viability of PDAC cell lines, 11-dose single-agent curves, 4-parameter fit. The note with it: 72 h, read-out: EC50 [nM]. In short, it runs like this:
as §1

The subject of test [12] is Colo-357. The test is described as follows: cells. On the set-up: ATPlite luminescence viability of PDAC cell lines, 11-dose single-agent curves, 4-parameter fit. The note with it: Homo sapiens, COLO357, 72 h, read-out: EC50 [nM]. The method in brief:
as §1

Test [13] deals with Capan-1. The test is described as follows: cells. On the set-up: ATPlite luminescence viability of PDAC cell lines, 11-dose single-agent curves, 4-parameter fit. The note with it: Homo sapiens, CAPAN-1, 72 h, read-out: EC50 [nM]. The method in brief: as §1
For test [14], the system named is 13 PDAC cell lines. The test is described as follows: Phenotypic drug combination viability screen (ATPlite, 72 h), cell line panel. The class given is cell-based, human. The note with it: for median AUC across all cell lines: single agent, 72 h. As for the experimental part: Cell viability was assessed by measuring ATP levels to indicate metabolic activity.
Afterward, small amounts were transferred to 384-well intermediate plates (Greiner Bio-One GmbH, Germany). […] For drug combination screening, 1000 to 5000 cells were seeded into 384-well plates (CulturPlate™, Perkin Elmer, MA, USA) using a Multidrop™ Combi Reagent Dispenser (Thermo Scientific, MA, USA) in 50 µl medium per well 24 h prior to drug treatment (seeding densities see Appendix Table S1). […] The final DMSO concentration in each well was 0.2%. […] Eight wells per plate without library drug served as negative controls, and sixteen wells per plate containing 5 µM Staurosporine served as positive controls. Control plates not containing any drug were used to correct for incubation effects, and data quality was assessed by calculation of Z-prime of positive and negative controls according to1 Z-prime=1−3SDpos+3SDneg/[…] where SD is the standard deviation. […] Dose–response curves from the experimental and hypothetical data were compared, and shifts in AUC were used to describe combination effects (AUC∆ = AUChypothetical − AUCexperimental). […] Only combinations with R^2 > 0.8 in both conditions were considered in the synergy analysis.
Background: ATP-based viability assays read luminescence as a measure of living cells.

The test system of test [15] is PANC-1. The test is described as follows: cells. On the set-up: Viability of PDAC cell lines, ATPlite luminescence, 11-dose single-agent curve fit. The note with it: Homo sapiens, PANC-1, 72 h, read-out: EC50 [nM]. In short, it runs like this: (§2)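 screening used cells plated at 1000 to 5000 per well one day before treatment. Final DMSO was 0.2%. Each plate held untreated negative-control wells and 5 µM staurosporine positive-control wells.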

In test [16] the test system is HuP-T4. As to the kind of experiment: cells. On the set-up: Viability of PDAC cell lines, ATPlite luminescence, 11-dose single-agent curve fit. The settings on record: Homo sapiens, HuP-T4, 72 h, read-out: EC50 [nM]. In short, it runs like this:
as §2

For test [17], the system named is Colo-357. As to the kind of experiment: cells. On the set-up: Viability of PDAC cell lines, ATPlite luminescence, 11-dose single-agent curve fit. The settings on record: Homo sapiens, COLO357, 72 h, read-out: EC50 [nM]. In short, it runs like this:
as §2

Test [18] has as its system Capan-1. The test is described as follows: cells. On the set-up: Viability of PDAC cell lines, ATPlite luminescence, 11-dose single-agent curve fit. The note with it: Homo sapiens, CAPAN-1, 72 h, read-out: EC50 [nM]. The method in brief:
as §2

The subject of test [19] is HPDE. As to the kind of experiment: cells. The settings on record: HPDE, 72 h, read-out: EC50 [nM]. On the set-up: Viability of PDAC cell lines, ATPlite luminescence, 11-dose single-agent curve fit. In short, it runs like this:
as §2

Test [20] deals with BxPC-3. As to the kind of experiment: cells. On the set-up: Viability of PDAC cell lines, ATPlite luminescence, 11-dose single-agent curve fit. The settings on record: Homo sapiens, BXPC-3, 72 h, read-out: EC50 [nM]. The method in brief: as §2
Test [21] concerns AsPC-1. The test is described as follows: cells. On the set-up: Viability of PDAC cell lines, ATPlite luminescence, 11-dose single-agent curve fit. The note with it: Homo sapiens, ASPC1, 72 h, read-out: EC50 [nM]. In short, it runs like this: as §2
Test [22] relates to PaTu-8988-T. As to the kind of experiment: cells. On the set-up: Viability of PDAC cell lines, ATPlite luminescence, 11-dose single-agent curve fit. The settings on record: Homo sapiens, PaTu 8988t, 72 h, read-out: EC50 [nM]. In short, it runs like this:
as §2

Test [23] deals with FAMPAC. The test is described as follows: cells. On the set-up: Viability of PDAC cell lines, ATPlite luminescence, 11-dose single-agent curve fit. The note with it: 72 h, read-out: EC50 [nM]. The method in brief:
as §2

Test [24] deals with MiaPaCa-2. As to the kind of experiment: cells. On the set-up: Viability of PDAC cell lines, ATPlite luminescence, 11-dose single-agent curve fit. The settings on record: Homo sapiens, MIA PaCa-2, 72 h, read-out: EC50 [nM]. In short, it runs like this:
as §2

Test [25] relates to PSN-1. As to the kind of experiment: cells. On the set-up: Viability of PDAC cell lines, ATPlite luminescence, 11-dose single-agent curve fit. The settings on record: Homo sapiens, PSN1, 72 h, read-out: EC50 [nM]. The method in brief: as §2
The test system of test [26] is Dan-G. The test is described as follows: cells. On the set-up: Viability of PDAC cell lines, ATPlite luminescence, 11-dose single-agent curve fit. The note with it: 72 h, read-out: EC50 [nM]. In short, it runs like this:
as §2

The test system of test [27] is Suit2-07. The test is described as follows: cells. On the set-up: Viability of PDAC cell lines, ATPlite luminescence, 11-dose single-agent curve fit. The note with it: 72 h, read-out: EC50 [nM]. In short, it runs like this: as §2

Turning to `COc1c(OCCCN2CCOCC2)ccc2c1N=C(NC(=O)c1cnc(N)nc1)N1CCN=C21` [Copanlisib], the EC50 in test [1] stood at 283 nM; in [2], 113 nM; in test [3], 1110 nM; in test [4], 65.6 nM; in test [5] it was 58.8 nM; in test [6], 787 nM. In addition, the EC50 in [7] was determined as 175 nM; in test [8], 101 nM; in [9] it was 48 nM; in test [10], 29.8 nM; in test [11] it was 108 nM; in [12], 17.6 nM. The EC50 in test [13] was 21.6 nM. Moreover, the “median AUC across all cell lines” value in test [14] is less than 70%.
Turning to `CC(=O)Nc1cccc(-n2c(=O)n(C3CC3)c(=O)c3c(Nc4ccc(I)cc4F)n(C)c(=O)c(C)c32)c1` [Trametinib], the EC50 in test [1] is 7 nM; in test [2] it was 13.1 nM; in test [3], 9.21 nM; in [4] it was 3.92 nM; in test [6], 5.34 nM; in [7], 3.02 nM. Also, the EC50 in test [8] is 7.98 nM; in [10] it was 1.4 nM; in test [11], 8.92 nM; in test [15], 45.6 nM; in test [16], 8.2 nM; in test [17], 1160 nM. Besides, in test [18], the EC50 was 88.1 nM. Also, the “median AUC across all cell lines” value in test [14] is recorded as less than 70%.
For the molecule `Cn1ncnc1[C@H]1c2n[nH]c(=O)c3cc(F)cc(c23)N[C@@H]1c1ccc(F)cc1` [Talazoparib], the 50% effective concentration (EC50) in test [3] turned out to be 693 nM; in test [4], 825 nM; in [6], 405 nM; in [10], 268 nM; in test [11], 113 nM; in test [12], 355 nM. Further, the EC50 was 507 nM in test [13]; more than 10000 nM in test [19]; 2960 nM in test [20]; 1590 nM in test [15]; 2650 nM in test [21]; more than 10000 nM in test [22]. Moreover, in [16], the EC50 is 6060 nM. Moreover, the “number of cell lines with synergy with GEM” value in test [14] (of 13 cell lines, Bliss model) is recorded as “two”.
As to `O=C(Cc1ccc(-c2ccc(OCCN3CCOCC3)cc2)cn1)NCc1ccccc1` [Tirbanibulin], the half-maximal effective concentration (EC50) in test [1] was found to be 39.9 nM; in test [2], 29.9 nM; in test [3], 33.1 nM; in test [4] it was 26.3 nM; in test [5], 28.6 nM; in test [6], 30.7 nM. Besides, the concentration for a half-maximal effect (EC50) in test [7] amounted to 41.9 nM; in test [8], 33 nM; in test [10], 31.9 nM; in test [11], 45 nM; in test [12], 37.7 nM; in test [13], 43.4 nM. In [16], the concentration giving a half-maximal response (EC50) was determined as 10300 nM. Also, in test [14], the “median AUC across all cell lines” value came to 60%.
Turning to `CO[C@H]1C[C@@H]2CC[C@@H](C)[C@@](O)(O2)C(=O)C(=O)N2CCCC[C@H]2C(=O)O[C@H]([C@H](C)C[C@@H]2CC[C@@H](OC(=O)C(C)(CO)CO)[C@H](OC)C2)CC(=O)[C@H](C)/C=C(\C)[C@@H](O)[C@@H](OC)C(=O)[C@H](C)C[C@H](C)/C=C/C=C/C=C/1C` [Temsirolimus], the “median AUC across all cell lines” value in test [14] is recorded as more than 80%. Besides, the EC50 in test [19] worked out at 0.19 nM; in test [20], 0.06 nM; in [23], 0.13 nM; in [24] it was 2.17 nM; in test [15], 29.2 nM; in [25], 0.57 nM. Also, the EC50 worked out at 1.54 nM in [21]; 0.57 nM in test [22]; 30.2 nM in test [16]; 1.3 nM in test [26]; 0.35 nM in test [27]; 4160 nM in test [17]. Moreover, the EC50 in [18] is 0.08 nM.
